According to patent US20040038856A1, “Treatment of fibroproliferative disorders using TGF-beta inhibitors” (priority 2002, published 2004):

Test system: bleomycin rat model of pulmonary fibrosis
Experiment: Bleomycin rat model of pulmonary fibrosis, day 14, dexamethasone and/or test compound
Type: in vivo
Details: Dex 2.0 mg/kg every other day, test compound 40 mg/kg twice a day
Protocol: Rats were intubated with saline or 1 unit of bleomycin. After twenty four hours, rats were weighed and dosed with saline or 2.0 mg/kg of dexamethasone every other day and 1% methyl cellulose (MC) or 40 mg/kg of a test compound twice a day. On day 14, 1-3 hours after dosing, rat were sacrificed and lungs were inflated and collected for analysis.
The primary end points of the analysis were the total hydroxyproline concentration per lung and lung capacity. The secondary end point was the body weight.
The statistical analysis was done using one-way ANOVA with Bonferroni's Multiple Comparison Test.

SMILES: C[C@@H]1C[C@H]2[C@@H]3CCC4=CC(=O)C=C[C@]4(C)[C@@]3(F)[C@@H](O)C[C@]2(C)[C@@]1(O)C(=O)CO [dexamethasone]
- bleomycin-induced body weight loss: no effect
